Among the data in US20150353495A1 (PORTOLA PHARMACEUTICALS, INC., priority 2010, published 2015) are IC50 and inhibition values, retold here.

A word on the IC50: it is the concentration needed to halve the response being measured.

The target in one test is T1, TYK2 (Homo sapiens, UniProt P29597).
T1 construct: 5 μl of catalytic domain recombinant Kinase enzyme+Tyr peptide substrate (Invitrogen, CA); purchased Invitrogen
T1 sequence (P29597 897-1176 limits assumed): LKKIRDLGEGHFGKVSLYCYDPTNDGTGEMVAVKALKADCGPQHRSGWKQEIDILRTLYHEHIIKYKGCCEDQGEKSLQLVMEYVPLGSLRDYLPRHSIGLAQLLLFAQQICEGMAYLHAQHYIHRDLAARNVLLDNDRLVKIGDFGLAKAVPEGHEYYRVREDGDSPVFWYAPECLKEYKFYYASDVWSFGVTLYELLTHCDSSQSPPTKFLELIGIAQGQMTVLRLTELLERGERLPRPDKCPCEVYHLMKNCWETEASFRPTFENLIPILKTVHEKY
In words: Z'-LYTE kinase assay TYK2. It is filed as biochemical. The essentials: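 IC50 derived by 4-parameter logistic fit of percent substrate phosphorylation relative to uninhibited wells. Tyr6 peptide phosphorylated by recombinant TYK2 catalytic domain for 1 h at room temperature (1% DMSO), cleaved by development protease 1 h, FRET emission ratio 445/520 nm.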

The target of the next test is T2, JAK2 (Homo sapiens, UniProt O60674).
T2 construct: 5 μl of catalytic domain recombinant Kinase enzyme+Tyr peptide substrate (Invitrogen, CA); purchased Invitrogen
T2 sequence (O60674 849-1124 limits assumed): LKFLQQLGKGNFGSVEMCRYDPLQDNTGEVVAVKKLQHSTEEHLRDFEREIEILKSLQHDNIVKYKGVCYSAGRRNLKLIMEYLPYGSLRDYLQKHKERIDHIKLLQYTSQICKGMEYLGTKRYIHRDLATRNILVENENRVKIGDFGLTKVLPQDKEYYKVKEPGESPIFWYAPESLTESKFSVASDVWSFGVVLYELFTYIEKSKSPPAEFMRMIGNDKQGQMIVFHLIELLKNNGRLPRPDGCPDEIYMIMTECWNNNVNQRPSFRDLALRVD
Kind of test: Z'-LYTE kinase assay JAK2. The format is biochemical. Summed up: (§1)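 In duplicate wells, each test molecule (1% final DMSO) is incubated with recombinant kinase catalytic domain, Tyr6 peptide substrate and ATP for one hour at room temperature; a site-specific protease is then added for another hour before fluorescence reading.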

Another test addresses T3, JAK3 (Homo sapiens, UniProt P52333).
T3 construct: 5 μl of catalytic domain recombinant Kinase enzyme+Tyr peptide substrate (Invitrogen, CA); purchased Invitrogen
Kind of test: Z'-LYTE kinase assay JAK3. It is filed as biochemical. Summed up: as §1

A further test deals with T4, JAK1 (Homo sapiens, UniProt P23458).
T4 construct: 5 μl of catalytic domain recombinant Kinase enzyme+Tyr peptide substrate (Invitrogen, CA); purchased Invitrogen
T4 sequence (P23458 875-1153 limits assumed): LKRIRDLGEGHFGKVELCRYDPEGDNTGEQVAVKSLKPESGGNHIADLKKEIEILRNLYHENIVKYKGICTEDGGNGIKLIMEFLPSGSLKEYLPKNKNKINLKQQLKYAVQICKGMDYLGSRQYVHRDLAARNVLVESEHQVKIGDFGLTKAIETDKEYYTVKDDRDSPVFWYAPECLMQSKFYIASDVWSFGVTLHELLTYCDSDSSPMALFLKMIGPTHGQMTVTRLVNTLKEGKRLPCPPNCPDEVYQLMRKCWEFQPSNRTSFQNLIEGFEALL
In words: Z'-LYTE kinase assay JAK1. It is filed as biochemical. The essentials: as §1

Test [1] deals with JAK1/3 signaling to STAT6 in Ramos B cells. Kind of test: IL4 stimulation of JAK1/3 signaling to STAT6 in Ramos B cells (pSTAT6 Y641, FACS). It is filed as cell-based. The conditions noted are these: Homo sapiens; for inhibition at 1 µM: 1.0 uM compound, read-out: IL-4/STAT6 in Ramos Percent Inhibition at 1.0 uM; for inhibition at 0.2 µM: 0.2 uM compound, read-out: IL-4/STAT6 in Ramos Percent Inhibition at 0.2 uM. Summed up: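 Phospho-STAT6 Y641 was measured by FACS using a PE-labelled antibody after fixation (2% paraformaldehyde) and methanol permeabilization. Before this, Ramos cells were exposed to compound for 1 h, then to 15 ng IL4 for 15 min.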

Molecules are shown by their SMILES. Where a name gives a salt, the structure may show the parent alone.

T3 sequence (P52333 822-1111 limits assumed): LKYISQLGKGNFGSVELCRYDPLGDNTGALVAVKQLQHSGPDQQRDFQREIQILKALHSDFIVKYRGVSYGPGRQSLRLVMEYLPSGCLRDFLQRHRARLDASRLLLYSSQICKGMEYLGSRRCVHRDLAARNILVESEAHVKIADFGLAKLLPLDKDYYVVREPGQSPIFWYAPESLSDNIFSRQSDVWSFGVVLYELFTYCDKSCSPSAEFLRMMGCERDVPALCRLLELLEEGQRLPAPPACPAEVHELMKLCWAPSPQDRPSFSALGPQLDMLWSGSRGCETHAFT

For the compound `C[N+]1(C)CCC(c2ccc(Nc3cc(NCc4cccc(F)c4)c(C(N)=O)cn3)cc2)CC1` [Example 78, 4-(4-(5-carbamoyl-4-(3-fluorobenzylamino)pyridin-2-ylamino)phenyl)-1,1-dimethylpiperidinium formate], the IC50 was 100 to 1000 nM on TYK2, 10 to 100 nM on JAK2, 1 to 10 nM on JAK3 and 100 to 1000 nM against JAK1. In test [1], the inhibition at 1 µM turned out to be 14%.
Take `NC(=O)c1cnc(Nc2ccc(OCC(=O)N3CCOCC3)cc2)cc1NCc1ccccc1` [Example 80, 4-(benzylamino)-6-(4-(2-morpholino-2-oxoethoxy)phenylamino)nicotinamide]: the IC50 was more than 1000 nM on TYK2, 100 to 1000 nM at JAK2, 10 to 100 nM on JAK3 and more than 1000 nM on JAK1. The inhibition at 0.2 µM in test [1] turned out to be 23%. In addition, in test [1], the inhibition at 1 µM was 43%.
Regarding `NC(=O)c1cnc(Nc2ccc(OCCN3CCCCC3)cc2)cc1NCc1ccccc1` [Example 81, 4-(benzylamino)-6-(4-(2-(piperidin-1-yl)ethoxy)phenylamino)nicotinamide], the IC50 was more than 1000 nM at TYK2, 100 to 1000 nM against JAK2, 10 to 100 nM against JAK3 and more than 1000 nM on JAK1. In addition, the inhibition at 0.2 µM in test [1] worked out at 29%. Moreover, the inhibition at 1 µM in test [1] stood at 48%.
For the compound `CN(C)C(=O)c1ccc(Nc2cc(NCc3cc(F)ccc3F)c(C(N)=O)cn2)cc1` [Example 92, 4-(2,5-difluorobenzylamino)-6-(4-(dimethylcarbamoyl)phenylamino)nicotinamide], the IC50 at TYK2 lay within 100 to 1000 nM; against JAK2, 10 to 100 nM; against JAK3 it was 1 to 10 nM; at JAK1 it was 100 to 1000 nM. Also, the inhibition at 0.2 µM in test [1] stood at 41%. Moreover, in test [1], the inhibition at 1 µM was 67%.
Regarding `NC(=O)c1cnc(Nc2ccc(N3CCCCC3=O)cc2)cc1NCc1cc(F)ccc1F` [Example 94, 4-(2,5-difluorobenzylamino)-6-(4-(2-oxopiperidin-1-yl)phenylamino)nicotinamide], the IC50 against TYK2 was 100 to 1000 nM; against JAK2 it was 10 to 100 nM; against JAK3 it was 1 to 10 nM; against JAK1, 100 to 1000 nM. Besides, in test [1], the inhibition at 0.2 µM came out at 35%. Further, in test [1], the inhibition at 1 µM amounted to 62%.
As for `NC(=O)c1cnc(Nc2ccc(C3CCNCC3)cc2)cc1NCc1ccccc1F` [Example 106, 4-(2-fluorobenzylamino)-6-(4-(piperidin-4-yl)phenylamino)nicotinamide], the IC50 is 100 to 1000 nM at TYK2, 100 to 1000 nM against JAK2, 1 to 10 nM on JAK3 and 100 to 1000 nM on JAK1. Besides, the inhibition at 0.2 µM in test [1] was 28%. The inhibition at 1 µM in test [1] amounted to 49%.
As for `NC(=O)c1cnc(Nc2ccc(C3CCN(C4CCCC4)CC3)cc2)cc1NCc1ccccc1F` [Example 109, 6-(4-(1-cyclopentylpiperidin-4-yl)phenylamino)-4-(2-fluorobenzylamino)nicotinamide], the IC50 against TYK2 lay within 100 to 1000 nM; against JAK2 it was 100 to 1000 nM; on JAK3 it was 1 to 10 nM; on JAK1, 100 to 1000 nM. Also, the inhibition at 0.2 µM in test [1] came out at 23%. The inhibition at 1 µM in test [1] is 60%.
Take `CC(=O)N1CCC(c2ccc(Nc3cc(NCc4ccccc4F)c(C(N)=O)cn3)cc2)CC1` [Example 115, 6-(4-(1-acetylpiperidin-4-yl)phenylamino)-4-(2-fluorobenzylamino)nicotinamide]: the IC50 lay in the range of 100 to 1000 nM at TYK2, 100 to 1000 nM against JAK2, 10 to 100 nM at JAK3 and 100 to 1000 nM on JAK1. In addition, the inhibition at 0.2 µM in test [1] was found to be 31%. Moreover, in test [1], the inhibition at 1 µM was 64%.
Take `COCC(=O)N1CCC(c2ccc(Nc3cc(NCc4ccccc4F)c(C(N)=O)cn3)cc2)CC1` [Example 116, 4-(2-fluorobenzylamino)-6-(4-(1-(2-methoxyacetyl)piperidin-4-yl)phenylamino)nicotinamide]: the IC50 was 100 to 1000 nM at TYK2, 10 to 100 nM against JAK2, 1 to 10 nM against JAK3 and 100 to 1000 nM on JAK1. In addition, in test [1], the inhibition at 0.2 µM was found to be 25%. Further, the inhibition at 1 µM in test [1] is 43%.
As to `N#CCC(=O)N1CCC(c2ccc(Nc3cc(NCc4ccccc4F)c(C(N)=O)cn3)cc2)CC1` [Example 117, 6-(4-(1-(2-cyanoacetyl)piperidin-4-yl)phenylamino)-4-(2-fluorobenzylamino)nicotinamide], the IC50 fell in the range of 100 to 1000 nM against TYK2, 100 to 1000 nM on JAK2, 1 to 10 nM against JAK3 and 100 to 1000 nM on JAK1. Besides, the inhibition at 0.2 µM in test [1] turned out to be 43%. For the same compound, the inhibition at 1 µM in test [1] was 67%.
Take `CC(=O)N1CCN(c2ccc(Nc3cc(NCc4cccs4)c(C(N)=O)cn3)cc2)CC1` [Example 122, 6-(4-(4-acetylpiperazin-1-yl)phenylamino)-4-(thiophen-2-ylmethylamino)nicotinamide]: the IC50 at TYK2 was 10 to 100 nM; at JAK2, 100 to 1000 nM; against JAK3, 1 to 10 nM; at JAK1 it was 100 to 1000 nM. The inhibition at 0.2 µM in test [1] was determined as 34%. The inhibition at 1 µM in test [1] worked out at 57%.
Take `NC(=O)c1cnc(Nc2cccc(OCCN3CCOCC3)c2)cc1NCc1cccc(F)c1` [Example 228]: the IC50 on TYK2 is more than 1000 nM; against JAK2 it was 100 to 1000 nM; at JAK3, 1 to 10 nM; against JAK1, 100 to 1000 nM. In test [1], the inhibition at 0.2 µM was determined as 24%. Besides, in test [1], the inhibition at 1 µM worked out at 48%.
In the case of `CC(=O)N1CCN(c2ccc(Nc3cc(NCc4cccnc4)c(C(N)=O)cn3)cc2)CC1` [Example 233], the IC50 is 100 to 1000 nM on TYK2, 100 to 1000 nM against JAK2, 1 to 10 nM on JAK3 and 100 to 1000 nM against JAK1. Further, the inhibition at 0.2 µM in test [1] worked out at 17%. The inhibition at 1 µM in test [1] amounted to 33%.
As for `CC(=O)N1CCN(c2ccc(Nc3cc(NCC4CCCC4)c(C(N)=O)cn3)cc2)CC1` [Example 245, 6-(4-(4-acetylpiperazin-1-yl)phenylamino)-4-(cyclopentylmethylamino)nicotinamide], the IC50 against TYK2 was 10 to 100 nM; at JAK2 it was 10 to 100 nM; against JAK3, 1 to 10 nM; on JAK1, 100 to 1000 nM. For the same compound, the inhibition at 0.2 µM in test [1] was found to be 14%. Moreover, the inhibition at 1 µM in test [1] was 38%.
`CNC(=O)c1cccc(Nc2cc(NCc3ccccc3)c(C(N)=O)cn2)c1` [Example 246, 4-(benzylamino)-6-(3-(methylcarbamoyl)phenylamino)nicotinamide]: the IC50 is more than 1000 nM against TYK2, 100 to 1000 nM against JAK2, 10 to 100 nM against JAK3 and 100 to 1000 nM against JAK1. The inhibition at 0.2 µM in test [1] is 6%. Further, the inhibition at 1 µM in test [1] amounted to 11%.
Consider `CN(C)C(=O)c1cccc(Nc2cc(NCc3ccccc3)c(C(N)=O)cn2)c1` [Example 247, 4-(benzylamino)-6-(3-(dimethylcarbamoyl)phenylamino)nicotinamide], for which the IC50 is 100 to 1000 nM on TYK2, 100 to 1000 nM against JAK2, 10 to 100 nM against JAK3 and 100 to 1000 nM on JAK1. The inhibition at 0.2 µM in test [1] came to 6%. Also, the inhibition at 1 µM in test [1] amounted to 24%.
`CN(C)C(=O)c1ccc(Nc2cc(NCc3ccccc3)c(C(N)=O)cn2)cc1` [Example 248, 4-(benzylamino)-6-(4-(dimethylcarbamoyl)phenylamino)nicotinamide]: the IC50 on TYK2 was 100 to 1000 nM; against JAK2, 100 to 1000 nM; at JAK3, 1 to 10 nM; on JAK1 it was 100 to 1000 nM. Moreover, in test [1], the inhibition at 0.2 µM worked out at 24%. Besides, the inhibition at 1 µM in test [1] came to 50%.
In the case of `NC(=O)c1cnc(Nc2ccc(N3CCOCC3)c(Cl)c2)cc1NCc1ccccc1` [Example 251, 4-(benzylamino)-6-(3-chloro-4-morpholinophenylamino)nicotinamide], the IC50 was more than 1000 nM on TYK2, 100 to 1000 nM against JAK2, 10 to 100 nM against JAK3 and more than 1000 nM against JAK1. Moreover, the inhibition at 0.2 µM in test [1] amounted to 17%. In test [1], the inhibition at 1 µM turned out to be 51%.
Consider `CC(=O)N1CCN(c2ccc(Nc3cc(N[C@H]4CCc5ccccc54)c(C(N)=O)cn3)cc2)CC1` [Example 255, (S)-6-(4-(4-acetylpiperazin-1-yl)phenylamino)-4-(2,3-dihydro-1H-inden-1-ylamino)nicotinamide], for which the IC50 at TYK2 is 100 to 1000 nM; against JAK2 it was 100 to 1000 nM; on JAK3 it was 10 to 100 nM; against JAK1, more than 1000 nM. Also, the inhibition at 0.2 µM in test [1] came out at 11%. In addition, the inhibition at 1 µM in test [1] stood at 18%.
